Consider seven compounds from patent publication US12421254B2, “KRAS modulators and uses thereof” (Quanta Therapeutics, Inc., priority 2023, dated 2025).

Experiment [1] concerns the target GST-tagged KRAS-G12D (2-169) (Homo sapiens, UniProt P01116, G12D). In words: Nucleotide exchange assay (NEA), SOS-mediated, HTRF, KRAS G12D. Format: biochemical. As to conditions: IC50 extracted at 30 min, 20 nM SOScat. The method in brief: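 SOS1cat-driven loading of fluorescent GTP-DY-647P1 (150 nM) onto GST-KRAS-G12D (2-169, 0.25 nM) read by time-resolved FRET; SOScat 20 nM, compound preincubated with KRAS 1 h at RT. Signal blanked to no-SOS reactions, normalized to DMSO; IC50 fitted from the 30-min read.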

Experiment [2] deals with GST-tagged KRAS-G12V (2-169) (Homo sapiens, UniProt P01116, G12V). In words: Nucleotide exchange assay (NEA), SOS-mediated, HTRF, KRAS G12V. Format: biochemical. The following applies: Table 4; IC50 extracted at 90 min; 80 nM SOS. Summed up: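 Exchange onto fluorescent GTP-DY-647P1 (150 nM final) catalysed by 80 nM SOS1cat was followed by Tb-anti-GST HTRF at RT for up to 90 min, after 1 h compound pre-incubation with 0.25 nM GST-tagged KRAS-G12V (2-169), pH 7.3. DMSO = 0%, no-SOS blank = 100%; 4-parameter IC50 taken at 90 min.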
Sequence of GST-tagged KRAS-G12V (2-169) (P01116 2-169 isoform P01116-2 G12V): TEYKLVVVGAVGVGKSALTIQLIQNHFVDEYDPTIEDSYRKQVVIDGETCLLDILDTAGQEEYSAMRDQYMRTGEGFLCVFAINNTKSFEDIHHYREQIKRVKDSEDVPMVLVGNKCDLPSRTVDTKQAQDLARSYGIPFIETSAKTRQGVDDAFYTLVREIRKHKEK
(In general: In TR-FRET formats the signal depends on donor and acceptor labels being close together.)

For a further experiment, the target named is T1, KRAS G12D/RAF1 (Homo sapiens, UniProt P01116, G12D).
T1 construct: KRAS (1-169) proteins were expressed in BL21 (DE3)-CodonPlus E. coli; His6-MBP (N, cleaved yes)
T1 sequence (P01116 with tags, fused parts or gaps isoform P01116-2 G12D): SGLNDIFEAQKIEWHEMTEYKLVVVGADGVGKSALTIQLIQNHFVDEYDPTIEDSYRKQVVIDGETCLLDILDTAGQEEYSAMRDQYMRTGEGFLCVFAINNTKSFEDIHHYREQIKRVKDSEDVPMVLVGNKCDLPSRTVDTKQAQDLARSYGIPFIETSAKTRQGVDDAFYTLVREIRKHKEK
As to the kind of experiment: Protein-protein interaction (PPI) HTRF assay KRAS G12D/RAF1. Format: binding. As to conditions: Table 2. As for the experimental part:
(§1) When RAS proteins are in the active GTP-bound conformation, they bind the effector protein RAF1 at the N-terminus Ras-binding domain (RBD, residues 52-131) (Tran, et al., 2021). Homogenous time resolved fluorescence (HTRF) was used to monitor the interaction between wt or mutant KRAS and RAF1 or wt NRAS and RAF1. Compounds were assayed in the presence of KRAS G12D/V and RAF1 versus wt KRAS to assess activity against mutant and w.t. KRAS. Similarly, compounds were then assayed in the presence of w.t. NRAS and RAF1 to assess RAS isoform selectivity. In all assay formats, His-tagged RAF1 protein was incubated with the HTRF donor, anti-6His Tb Cryptate gold (Cisbio 61DB10RDF), and biotinylated RAS proteins were incubated with the HTRF acceptor, streptavidin-d2 (CisBio 610SADLA). The intensity of the fluorescence signal emitted is proportional to binding between the two proteins. The donor solution was prepared by mixing 16 nM His-tagged RAF1 in protein dilution buffer with 1:100 anti-6His Tb cryptate in PPI-Terbium detection buffer. 16 nM biotinylated RAS protein was diluted into protein dilution buffer (50 mM Tris-HCl pH 7.5, 150 mM NaCl, 0.1 mM MgCl2, 1 mM TCEP, 0.005% Tween20) and mixed with 1:2000 Streptavidin-d2 diluted in PPI-Terbium detection buffer (CisBio 61DB10RDF). 50× compound in DMSO was mixed with 16 nM KRAS-acceptor solution and incubated for 30 minutes at room temperature. After compound pre-incubation with KRAS, the RAF1 donor solution was added to the KRAS-acceptor solution and incubated for 1 hour at room temperature. The fluorescence signal emitted was monitored at 665 nm and 615 nm using an Envision multimode plate reader. The HTRF ratio (665/615) was calculated and normalized to 0% inhibition in the absence of compound and 100% inhibition in the presence of untagged RAF1 protein. PPI KRAS G12D/RAF1, KRAS G12V/RAF1, w.t. KRAS/RAF1 and NRAS/RAF1 IC50 (uM) values of selected compounds are depicted in Table 3 and Table 4 with compounds having a value <0.1 uM as ++++; ≥0.1 uM to 1 uM as +++; ≥1 uM to 10 uM as ++; ≥10 uM to 100 uM as +; and ≥100 uM as NA.

The next experiment addresses T2, KRAS G12V/RAF1 (Homo sapiens, UniProt P01116, G12V).
T2 construct: KRAS (1-169) proteins were expressed in BL21 (DE3)-CodonPlus E. coli; His6-MBP (N, cleaved yes)
As to the kind of experiment: Protein-protein interaction (PPI) HTRF assay KRAS G12V/RAF1. Format: binding. As to conditions: Table 3. As for the experimental part: as §1

The next experiment addresses T3, w.t. KRAS/RAF1 (Homo sapiens, UniProt P01116).
T3 construct: KRAS (1-169) proteins were expressed in BL21 (DE3)-CodonPlus E. coli; His6-MBP (N, cleaved yes)
As to the kind of experiment: Protein-protein interaction (PPI) HTRF assay w.t. KRAS/RAF1. The experiment is classed as binding. As to conditions: Table 3; wt KRAS/RAF1. As to the method:
as §1

The subject of another experiment is phospho-ERK in AGS cells. As to the kind of experiment: pERK In Cell Western (ICW) assay (Method B), AGS. Format: cell-based. As to conditions: Homo sapiens, Table 2, 3 hours. As to the method:
pERK ICW is a high throughput screening assay to evaluate the cellular potency of mutant KRAS small molecule inhibitors. KRAS mutant cell lines AGS, GP2D (KRAS-G12D) as well as SW620 (KRAS-G12V) were purchased from ATCC and maintained respectively in RPMI/DMEM/RPMI medium supplemented with 10% fetal bovine serum.
Cells grown in exponential phase were trypsinized, resuspended in fresh media, and viable cells were counted using a cell counter with Trypan Blue (BioRad TC20). Cells were seeded into 384-well plate (Greiner 781091) at density of 5,000 cells/well for AGS and 10,000 cells/well for GP2D/SW620 and allowed to grow overnight in a 37° C. CO2 incubator. The next day, compounds were dispensed into wells with a ½ log, 9-point serial dilution using a Tecan D300e dispenser and incubated for 3 hours in a 37° C. CO2 incubator. Cells were then fixed with paraformaldehyde (Electron Microscopy Sciences, 15710, 4% final concentration) for 30 min, permeabilized with wash buffer (1×PBS+0.1% Triton X-100) for 30 min and blocked with Odyssey blocking buffer (Li—COR 927-70001) for 1 hour, all at room temperature (RT). Phospho-ERK antibody (CST 4370L) was diluted 1:500 in Odyssey T20 (PBS) antibody diluent (Li—COR 927-75001) and incubated with cells overnight at 4° C. The next day, plates were washed 5× with wash buffer, incubated with IRDye 800 CW, Goat anti-Rabbit secondary antibody (Li—COR 926-32211, 1:800) and DRAQ5 (CST 4084L, 1:5,000) diluted in Odyssey T20 (PBS) antibody diluent for 1 hour, washed 5×, and imaged on an Odyssey CLx imaging system.
For data analysis, signal intensities from 800 (phosphor-ERK) and 700 (DRAQ5) channels were extracted, and phospho-ERK signals were normalized to DRAQ5 signals for each well and percent of blank control values were computed. Data were then imported into Graphpad Prism to compute half-maximal inhibitory concentrations (IC50) using a 4-parameter variable slope model. Z-factor for each plate was computed from signals derived from wells treated with either DMSO or 5 μM of control compound. AGS pERK ICW (Method B) IC50 (uM) values of selected compounds are depicted in Table 2 with compounds having a value ≥0.001 uM to 0.01 uM as ++++; ≥0.01 uM to 0.1 uM as +++; ≥0.1 uM to 1 uM as ++; ≥1 uM to 10 uM as + and ≥10 uM as NA.

Experiment [3] concerns phospho-ERK in GP2D (KRAS-G12D) cells. In words: pERK In Cell Western (ICW) assay (Method B), GP2D. Format: cell-based. As to conditions: GP2d, 3 h, Table 4. The method in brief: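 In-cell western read-out: phospho-ERK (800 nm) normalized to DRAQ5 (700 nm) per well, expressed as percent of blank control, IC50 from 4-parameter variable-slope fit. Compounds were applied as ½-log 9-point series for 3 h at 37 °C to cells plated the previous day.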

Where [4] appears, read: Table 2, read-out: NEA-G12D (uM) IC50.
The mark [5] stands for this setting: Table 4, read-out: NEA G12D IC50.

The structures appear in SMILES notation. Where two headings read alike, the source gives them in different places. Some results are limits rather than exact numbers.

Sequence of GST-tagged KRAS-G12D (2-169) (P01116 2-169 isoform P01116-2 G12D): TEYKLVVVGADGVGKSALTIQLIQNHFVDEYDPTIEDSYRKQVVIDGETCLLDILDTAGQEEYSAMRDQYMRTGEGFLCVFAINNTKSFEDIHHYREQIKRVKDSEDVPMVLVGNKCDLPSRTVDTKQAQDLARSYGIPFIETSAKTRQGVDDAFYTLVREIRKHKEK
T3 sequence (P01116 with tags, fused parts or gaps isoform P01116-2): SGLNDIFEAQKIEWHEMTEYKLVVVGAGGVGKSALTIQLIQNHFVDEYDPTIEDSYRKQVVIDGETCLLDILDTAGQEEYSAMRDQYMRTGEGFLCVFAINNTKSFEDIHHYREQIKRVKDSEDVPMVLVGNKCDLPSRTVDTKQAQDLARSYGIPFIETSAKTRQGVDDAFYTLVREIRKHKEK
T2 sequence (P01116 with tags, fused parts or gaps isoform P01116-2 G12V): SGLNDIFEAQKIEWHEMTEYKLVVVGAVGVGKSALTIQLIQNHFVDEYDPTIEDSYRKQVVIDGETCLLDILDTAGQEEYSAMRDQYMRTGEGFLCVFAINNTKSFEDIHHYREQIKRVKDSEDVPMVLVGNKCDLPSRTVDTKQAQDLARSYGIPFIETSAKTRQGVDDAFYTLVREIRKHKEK

For orientation: IC50 means the concentration at which inhibition is half-maximal. Turning to `CC1(C#N)CCCN(c2nc(OC[C@@]34CCCN3C[C@H](F)C4)nc(N3CC4(CCc5sc(N)c(C#N)c54)C3)n2)C1` (stereo partly drawn) [Compound 19, 2-amino-1′-[4-(3-cyano-3-methyl-1-piperidyl)-6-[[(2R,8S)-2-fluoro-1,2,3,5,6,7-hexahydropyrrolizin-8-yl]methoxy]-1,3,5-triazin-2-yl]spiro[5,6-dihydrocyclopenta[b]thiophene-4,3′-azetidine]-3-carbonitrile], the 50% inhibitory concentration (IC50) lay within 0.01 to 0.1 µM in experiment [1] (setting [4]); 0.01 to 0.1 µM in experiment [1] (setting [5]); 0.01 to 0.1 µM in experiment [2]; 1 to 10 µM against KRAS G12D/RAF1; 1 to 10 µM against KRAS G12V/RAF1; 1 to 10 µM against w.t. KRAS/RAF1. The IC50 (in the experiment on phospho-ERK in AGS cells; in experiment [3]) was 0.1 to 1 µM each time.
On to `N#Cc1c(N)sc2c1C1(CC2)CN(c2nc(OCC3(C#N)CC3)nc(OC[C@@]34CCCN3C[C@H](F)C4)n2)C1` [Compound 16, 2-amino-1′-[4-[(1-cyanocyclopropyl)methoxy]-6-[[(2R,8S)-2-fluoro-1,2,3,5,6,7-hexahydropyrrolizin-8-yl]methoxy]-1,3,5-triazin-2-yl]spiro[5,6-dihydrocyclopenta[b]thiophene-4,3′-azetidine]-3-carbonitrile], for which the IC50 lay within 0.01 to 0.1 µM in experiment [1] (setting [4]); 0.01 to 0.1 µM in experiment [1] (setting [5]); 0.01 to 0.1 µM in experiment [2]; 1 to 10 µM on KRAS G12D/RAF1; 1 to 10 µM on KRAS G12V/RAF1; 10 to 100 µM against w.t. KRAS/RAF1. Besides, the IC50 in the experiment with phospho-ERK in AGS cells lay within 1 to 10 µM; in experiment [3], 1 to 20 µM.
Regarding `N#Cc1c(N)sc2c1C1(CC2)CN(c2nc(OC[C@@]34CCCN3C[C@H](F)C4)nc(N3CCC[C@@H](CO)C3)n2)C1` [Compound 20, 2-amino-1′-[4-[[(2R,8S)-2-fluoro-1,2,3,5,6,7-hexahydropyrrolizin-8-yl]methoxy]-6-[(3R)-3-(hydroxymethyl)-1-piperidyl]-1,3,5-triazin-2-yl]spiro[5,6-dihydrocyclopenta[b]thiophene-4,3′-azetidine]-3-carbonitrile], the concentration for half-maximal inhibition (IC50) in experiment [1] (setting [4]) lay in the range of 0.01 to 0.1 µM; in experiment [1] (setting [5]) it was 0.01 to 0.1 µM; in experiment [2], 0.01 to 0.1 µM; against KRAS G12D/RAF1, 10 to 100 µM; against KRAS G12V/RAF1 it was 10 to 100 µM; with phospho-ERK in AGS cells, 1 to 10 µM. Also, the IC50 in experiment [3] lay within 1 to 20 µM.
Regarding `N#Cc1c(N)sc2c1C1(CC2)CN(c2nc(OC[C@@]34CCCN3C[C@H](F)C4)nc(N3CCCC(C#N)CC3)n2)C1` (stereo partly drawn) [Compound 8, 2-amino-1′-[4-(4-cyanoazepan-1-yl)-6-[[(2R,8S)-2-fluoro-1,2,3,5,6,7-hexahydropyrrolizin-8-yl]methoxy]-1,3,5-triazin-2-yl]spiro[5,6-dihydrocyclopenta[b]thiophene-4,3′-azetidine]-3-carbonitrile], the half-inhibitory concentration (IC50) in experiment [1] (setting [4]) lay in the range of 0.01 to 0.1 µM; on KRAS G12D/RAF1, 1 to 10 µM; at KRAS G12V/RAF1, 1 to 10 µM; at w.t. KRAS/RAF1, 1 to 10 µM.
For the compound `CN(CC1(C#N)CC1)c1nc(OC[C@@]23CCCN2C[C@H](F)C3)nc(N2CC3(CCc4sc(N)c(C#N)c43)C2)n1` [Compound 15, 2-amino-1′-[4-[(1-cyanocyclopropyl)methyl-methyl-amino]-6-[[(2R,8S)-2-fluoro-1,2,3,5,6,7-hexahydropyrrolizin-8-yl]methoxy]-1,3,5-triazin-2-yl]spiro[5,6-dihydrocyclopenta[b]thiophene-4,3′-azetidine]-3-carbonitrile], the IC50 in experiment [1] (setting [4]) was 0.1 to 1 µM; in experiment [1] (setting [5]), 0.1 to 1 µM; in experiment [2] it was 0.01 to 0.1 µM; against KRAS G12D/RAF1 it was 1 to 10 µM; against KRAS G12V/RAF1, 1 to 10 µM; at w.t. KRAS/RAF1, 1 to 10 µM.
Turning to `C[C@]1(O)CN(c2nc(OC[C@@]34CCCN3C[C@H](F)C4)nc(N3CC4(CCc5sc(N)c(C#N)c54)C3)n2)CC[C@H]1O` [Compound 21, 2-amino-1′-[4-[(3S,4R)-3,4-dihydroxy-3-methyl-1-piperidyl]-6-[[(2R,8S)-2-fluoro-1,2,3,5,6,7-hexahydropyrrolizin-8-yl]methoxy]-1,3,5-triazin-2-yl]spiro[5,6-dihydrocyclopenta[b]thiophene-4,3′-azetidine]-3-carbonitrile], the IC50 in experiment [1] (setting [4]) is 0.01 to 0.1 µM; in experiment [1] (setting [5]), 0.01 to 0.1 µM; in experiment [2] it was 0.01 to 0.1 µM; at KRAS G12D/RAF1, 0.1 to 1 µM; against KRAS G12V/RAF1, 1 to 10 µM; on w.t. KRAS/RAF1, 0.1 to 1 µM. Moreover, the IC50 (in the experiment on phospho-ERK in AGS cells; in experiment [3]) was 0.1 to 1 µM each time.
With `N#Cc1c(N)sc2c1C1(CC2)CCN(c2nc(OCC3(CN4CCOCC4)CC3)nc(N3C[C@H]4CC[C@@H](C3)N4)n2)C1` (stereo partly drawn) [Compound 9, 2-amino-1′-[4-[(1R,5S)-3,8-diazabicyclo[3.2.1]octan-3-yl]-6-[[1-(morpholinomethyl)cyclopropyl]methoxy]-1,3,5-triazin-2-yl]spiro[5,6-dihydrocyclopenta[b]thiophene-4,3′-pyrrolidine]-3-carbonitrile], the IC50 was less than 0.01 µM in experiment [1] (setting [4]); less than 0.01 µM in experiment [1] (setting [5]); 1 to 20 µM in experiment [2]; 1 to 10 µM against KRAS G12D/RAF1; 10 to 100 µM on KRAS G12V/RAF1; 0.1 to 1 µM in the experiment on phospho-ERK in AGS cells. In experiment [3], this compound displayed an IC50 of 0.01 to 0.1 µM.
